Reference: PubChem BioAssay (NCI)
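Five compound concentrations were applied to cells in 96-well plates for 48 hours; endpoints were derived by simple linear interpolation of the resulting dose-response curve. Definition used: TGI = concentration required for complete inhibition of growth.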

Key:
Experiment in all cases: NCI tumour cell line growth inhibition, 48 h
HCT-15 colon = test system: HCT-15 colon
MDA-MB-231 breast = test system: MDA-MB-231 breast
786-0 renal = test system: 786-0 renal
HCT-116 colon = test system: HCT-116 colon
SR leukemia = test system: SR leukemia
HCC-2998 colon = test system: HCC-2998 colon
HS 578T breast = test system: HS 578T breast
CCRF-CEM leukemia = test system: CCRF-CEM leukemia
SK-MEL-5 melanoma = test system: SK-MEL-5 melanoma
MOLT-4 leukemia = test system: MOLT-4 leukemia
A498 renal = test system: A498 renal
SK-MEL-2 melanoma = test system: SK-MEL-2 melanoma
HOP-62 NSCLC = test system: HOP-62 NSCLC
LOX IMVI melanoma = test system: LOX IMVI melanoma
SF-295 CNS = test system: SF-295 CNS
UACC-62 melanoma = test system: UACC-62 melanoma
SN12C renal = test system: SN12C renal
COLO 205 colon = test system: COLO 205 colon
BT-549 breast = test system: BT-549 breast
NCI-H460 lung = test system: NCI-H460 lung
NCI-H226 lung = test system: NCI-H226 lung
IGROV1 ovarian = test system: IGROV1 ovarian
MCF7 breast = test system: MCF7 breast
OVCAR-4 ovarian = test system: OVCAR-4 ovarian
SF-539 CNS = test system: SF-539 CNS
SK-OV-3 ovarian = test system: SK-OV-3 ovarian
MDA-N = test system: MDA-N
OVCAR-5 ovarian = test system: OVCAR-5 ovarian
MALME-3M melanoma = test system: MALME-3M melanoma
OVCAR-8 ovarian = test system: OVCAR-8 ovarian
EKVX NSCLC = test system: EKVX NSCLC
SF-268 CNS = test system: SF-268 CNS
SNB-19 CNS = test system: SNB-19 CNS
TK-10 renal = test system: TK-10 renal
OVCAR-3 ovarian = test system: OVCAR-3 ovarian
MDA-MB-435 = test system: MDA-MB-435
RXF 393 renal = test system: RXF 393 renal
SNB-75 CNS = test system: SNB-75 CNS
HL-60(TB) leukemia = test system: HL-60(TB) leukemia
K-562 leukemia = test system: K-562 leukemia
HT29 colon = test system: HT29 colon
PC-3 prostate = test system: PC-3 prostate
KM12 colon = test system: KM12 colon
NCI/ADR-RES ovarian = test system: NCI/ADR-RES ovarian
M14 melanoma = test system: M14 melanoma
HOP-92 NSCLC = test system: HOP-92 NSCLC
CAKI-1 renal = test system: CAKI-1 renal
U251 CNS = test system: U251 CNS
DU-145 prostate = test system: DU-145 prostate
T-47D breast = test system: T-47D breast
UO-31 renal = test system: UO-31 renal
ACHN renal = test system: ACHN renal
UACC-257 melanoma = test system: UACC-257 melanoma
NCI-H522 lung = test system: NCI-H522 lung
A549 NSCLC = test system: A549 NSCLC
SW-620 colon = test system: SW-620 colon
RPMI-8226 leukemia = test system: RPMI-8226 leukemia
NCI-H23 lung = test system: NCI-H23 lung
SK-MEL-28 melanoma = test system: SK-MEL-28 melanoma

Compound `Cc1ccc2c(=O)cc(-c3sccc3C)[nH]c2n1` has a TGI (HCT-15 colon) greater than 40.6 µM, a TGI (MDA-MB-231 breast) greater than 43.4 µM and a TGI (786-0 renal) greater than 67.8 µM. It also gave a TGI (HCT-116 colon) of 18.7 µM, a TGI (SR leukemia) greater than 61.1 µM and a TGI (HCC-2998 colon) of 7.13 µM. The TGI (HS 578T breast) was 13.6 µM, the TGI (CCRF-CEM leukemia) was greater than 24.4 µM and the TGI (SK-MEL-5 melanoma) was 3.88 µM. It also gave a TGI (MOLT-4 leukemia) greater than 27.8 µM, a TGI (A498 renal) greater than 35 µM and a TGI (SK-MEL-2 melanoma) greater than 40 µM. The TGI (HOP-62 NSCLC) was greater than 100 µM, the TGI (LOX IMVI melanoma) was greater than 38.1 µM and the TGI (SF-295 CNS) was greater than 100 µM. It also gave a TGI (UACC-62 melanoma) greater than 72 µM, a TGI (SN12C renal) greater than 47.2 µM and a TGI (COLO 205 colon) of 1.41 µM. For the same compound, the TGI (BT-549 breast) was greater than 100 µM, the TGI (NCI-H460 lung) was greater than 79.8 µM and the TGI (NCI-H226 lung) was 6.55 µM. It also gave a TGI (IGROV1 ovarian) greater than 96 µM, a TGI (MCF7 breast) greater than 57.7 µM and a TGI (OVCAR-4 ovarian) greater than 100 µM. For the same compound, the TGI (SF-539 CNS) was 1.79 µM, the TGI (SK-OV-3 ovarian) was greater than 100 µM and the TGI (MDA-N) was 0.359 µM. The TGI (OVCAR-5 ovarian) was greater than 100 µM, the TGI (MALME-3M melanoma) was greater than 69.1 µM and the TGI (OVCAR-8 ovarian) was greater than 31.8 µM. For the same compound, the TGI (EKVX NSCLC) was greater than 100 µM, the TGI (SF-268 CNS) was greater than 56.4 µM and the TGI (SNB-19 CNS) was greater than 100 µM. For the same compound, the TGI (TK-10 renal) was greater than 100 µM, the TGI (OVCAR-3 ovarian) was greater than 100 µM and the TGI (MDA-MB-435) was greater than 100 µM. It also gave a TGI (RXF 393 renal) greater than 20.1 µM, a TGI (SNB-75 CNS) greater than 100 µM and a TGI (HL-60(TB) leukemia) of 0.743 µM. For the same compound, the TGI (K-562 leukemia) was greater than 100 µM, the TGI (HT29 colon) was 8.72 µM and the TGI (PC-3 prostate) was greater than 28 µM. The TGI (KM12 colon) was greater than 59.5 µM, the TGI (NCI/ADR-RES ovarian) was 0.693 µM and the TGI (M14 melanoma) was greater than 34.4 µM. The TGI (HOP-92 NSCLC) was greater than 100 µM, the TGI (CAKI-1 renal) was greater than 100 µM and the TGI (U251 CNS) was greater than 33.6 µM. The TGI (DU-145 prostate) was greater than 67.3 µM, the TGI (T-47D breast) was greater than 100 µM and the TGI (UO-31 renal) was 23.8 µM. It also gave a TGI (ACHN renal) greater than 54.5 µM.

Work on `Cc1cc(NC2=CC(=O)C(=O)c3ccccc32)no1` yielded a TGI (HCT-15 colon) of 19 µM, a TGI (UACC-257 melanoma) of 16.7 µM and a TGI (MDA-MB-231 breast) greater than 67.2 µM. The TGI (786-0 renal) was 30.4 µM, the TGI (HCT-116 colon) was 34.4 µM and the TGI (SR leukemia) was greater than 48.1 µM. The TGI (NCI-H522 lung) was 34.5 µM, the TGI (HCC-2998 colon) was 35.2 µM and the TGI (HS 578T breast) was 40.9 µM. The TGI (CCRF-CEM leukemia) was 40.9 µM, the TGI (SK-MEL-5 melanoma) was 6.57 µM and the TGI (MOLT-4 leukemia) was 31.7 µM. It also gave a TGI (A498 renal) of 33.1 µM, a TGI (SK-MEL-2 melanoma) of 10.4 µM and a TGI (HOP-62 NSCLC) of 32.5 µM. It also gave a TGI (LOX IMVI melanoma) of 4.06 µM, a TGI (SF-295 CNS) of 21.6 µM and a TGI (A549 NSCLC) of 19.4 µM. For the same compound, the TGI (UACC-62 melanoma) was 9.27 µM, the TGI (SN12C renal) was 7.1 µM and the TGI (SW-620 colon) was 14.6 µM. The TGI (COLO 205 colon) was 31.6 µM, the TGI (RPMI-8226 leukemia) was 32.5 µM and the TGI (BT-549 breast) was 13.4 µM. It also gave a TGI (NCI-H460 lung) of 23.3 µM, a TGI (NCI-H226 lung) of 35.9 µM and a TGI (IGROV1 ovarian) of 21.8 µM. The TGI (MCF7 breast) was 7.66 µM, the TGI (OVCAR-4 ovarian) was 21.4 µM and the TGI (SF-539 CNS) was 13.4 µM. For the same compound, the TGI (SK-OV-3 ovarian) was 40.3 µM, the TGI (MDA-N) was 3.34 µM and the TGI (OVCAR-5 ovarian) was 18.1 µM. The TGI (MALME-3M melanoma) was 5.92 µM, the TGI (OVCAR-8 ovarian) was 29.4 µM and the TGI (EKVX NSCLC) was 31.5 µM. For the same compound, the TGI (SF-268 CNS) was 31.2 µM, the TGI (SNB-19 CNS) was 31.9 µM and the TGI (TK-10 renal) was 63.4 µM. It also gave a TGI (OVCAR-3 ovarian) of 14.1 µM, a TGI (MDA-MB-435) of 3.34 µM and a TGI (RXF 393 renal) of 29.6 µM. For the same compound, the TGI (SNB-75 CNS) was 23 µM, the TGI (HL-60(TB) leukemia) was greater than 29.6 µM and the TGI (K-562 leukemia) was 20.1 µM. The TGI (HT29 colon) was 28.3 µM, the TGI (PC-3 prostate) was 53.9 µM and the TGI (KM12 colon) was 29.7 µM. It also gave a TGI (NCI/ADR-RES ovarian) of 15.6 µM, a TGI (M14 melanoma) of 28.3 µM and a TGI (NCI-H23 lung) of 39.8 µM. The TGI (HOP-92 NSCLC) was 30.1 µM, the TGI (CAKI-1 renal) was 17.1 µM and the TGI (U251 CNS) was 13.4 µM. The TGI (DU-145 prostate) was 30.1 µM, the TGI (T-47D breast) was 32.7 µM and the TGI (UO-31 renal) was 20.4 µM. The TGI (SK-MEL-28 melanoma) was 31.6 µM and the TGI (ACHN renal) was 25.8 µM.

`CC[C@]12C=CCN3CC[C@@]4(c5cc(N=O)c(OC)cc5N(C)[C@H]4[C@@](O)(C(=O)OC)[C@@H]1OC(C)=O)[C@@H]32` was tested, and the TGI (HCT-15 colon) was greater than 100 µM, the TGI (UACC-257 melanoma) was greater than 100 µM and the TGI (MDA-MB-231 breast) was greater than 100 µM. The TGI (786-0 renal) was greater than 100 µM, the TGI (HCT-116 colon) was greater than 100 µM and the TGI (SR leukemia) was greater than 100 µM. The TGI (NCI-H522 lung) was 36.5 µM, the TGI (HCC-2998 colon) was greater than 100 µM and the TGI (HS 578T breast) was greater than 100 µM. It also gave a TGI (CCRF-CEM leukemia) of 74.1 µM, a TGI (SK-MEL-5 melanoma) greater than 100 µM and a TGI (MOLT-4 leukemia) greater than 100 µM. The TGI (A498 renal) was greater than 100 µM, the TGI (SK-MEL-2 melanoma) was 41.7 µM and the TGI (HOP-62 NSCLC) was greater than 100 µM. The TGI (LOX IMVI melanoma) was greater than 100 µM, the TGI (SF-295 CNS) was greater than 100 µM and the TGI (A549 NSCLC) was greater than 100 µM. For the same compound, the TGI (UACC-62 melanoma) was greater than 100 µM, the TGI (SN12C renal) was greater than 100 µM and the TGI (SW-620 colon) was greater than 100 µM. For the same compound, the TGI (COLO 205 colon) was greater than 100 µM, the TGI (BT-549 breast) was greater than 100 µM and the TGI (NCI-H460 lung) was greater than 100 µM. The TGI (NCI-H226 lung) was greater than 100 µM, the TGI (IGROV1 ovarian) was greater than 100 µM and the TGI (MCF7 breast) was greater than 100 µM. It also gave a TGI (OVCAR-4 ovarian) greater than 100 µM, a TGI (SF-539 CNS) of 66.5 µM and a TGI (SK-OV-3 ovarian) greater than 100 µM. It also gave a TGI (MDA-N) of 48.5 µM, a TGI (OVCAR-5 ovarian) greater than 100 µM and a TGI (MALME-3M melanoma) greater than 100 µM. For the same compound, the TGI (OVCAR-8 ovarian) was greater than 100 µM, the TGI (EKVX NSCLC) was greater than 100 µM and the TGI (SF-268 CNS) was greater than 100 µM. It also gave a TGI (SNB-19 CNS) greater than 100 µM, a TGI (TK-10 renal) greater than 100 µM and a TGI (OVCAR-3 ovarian) greater than 100 µM. For the same compound, the TGI (MDA-MB-435) was 74.8 µM, the TGI (RXF 393 renal) was greater than 100 µM and the TGI (SNB-75 CNS) was greater than 100 µM. For the same compound, the TGI (HL-60(TB) leukemia) was greater than 100 µM, the TGI (K-562 leukemia) was greater than 100 µM and the TGI (HT29 colon) was greater than 100 µM. For the same compound, the TGI (PC-3 prostate) was greater than 100 µM, the TGI (KM12 colon) was greater than 100 µM and the TGI (NCI/ADR-RES ovarian) was greater than 100 µM. It also gave a TGI (M14 melanoma) greater than 100 µM, a TGI (NCI-H23 lung) greater than 100 µM and a TGI (HOP-92 NSCLC) greater than 100 µM. The TGI (CAKI-1 renal) was greater than 100 µM, the TGI (U251 CNS) was 33.3 µM and the TGI (DU-145 prostate) was greater than 100 µM. The TGI (T-47D breast) was greater than 100 µM, the TGI (UO-31 renal) was greater than 100 µM and the TGI (SK-MEL-28 melanoma) was greater than 100 µM. For the same compound, the TGI (ACHN renal) was greater than 100 µM.
